# Measured values published in publication PMC5453931, “Cathelicidin-trypsin inhibitor loop conjugate represents a promising antibiotic candidate with protease stability” (Scientific Reports, 2017).
# Where a SMILES comes first, the peptide text is derived from it. Bridges are numbered along the chain shown (N, C = ends).
# How the values were obtained:
# Vibrio Parahaemolyticus = test: MIC, two-fold broth microdilution; format: cell-based; details: Aquatic pathogenic bacteria; two-fold broth microdilution, 37 °C, 18 h; mean of three independent experiments in duplicates
# Method in brief: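 Growth at A595 after 18 h at 37 °C defines the MIC, taken as the minimal peptide concentration giving no microbial growth. Organisms were grown to exponential phase in Mueller-Hinton broth and diluted to 10^6 CFU/mL prior to combining with an equal volume of peptide dilutions.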
# E. coli ATCC25922 = test: Salt stability of antimicrobial activity; format: cell-based; details: 1 × MIC, Fig. 3A
# Procedure: To determine the effect of salt on the antimicrobial activity of the parental and hybrid peptides, the bacteria colonies survived 1 × MIC of peptide in the presence of salt were counted. Briefly, E. coli ATCC25922 were diluted into decent concentration and mixed with each kind of peptide solution of 1 × MIC supplemented with NaCl (0, 50, 100, 150, 200 and 400 mM), respectively. […] The salt stability of the peptides was assessed by the number of colonies.
# Raw264.7 cells = test: LPS-induced NO, cytokine and chemokine production (Griess reagent, ELISA); format: cell-based, murine; details: LPS 100 ng/mL, peptide 5, 10, 20 μg/mL, 24 h, Fig. 6
# Procedure: RAW264.7 cells were cultured in DMEM (Gibco, Gaithersburg, USA), containing 10% fetal bovine serum, 100 U/mL streptomycin and 100 U/mL penicillin at 37 °C with 5% CO2, and plated in 24-well plate (1 × 10^6 cells/well). After adhesion, the cells were treated with LPS (100 ng/mL, from E. coli 055:B5, Sigma-Aldrich) in the absence or presence (5, 10, 20 μg/mL) of peptides for 24 h in the same condition. Untreated cells and LPS alone treated cells served as control. The NO was determined using Griess reagent (Beyotime, Jiangsu, China) according to the manufacturer’s protocol. ELISA kits (Joyee, shanghai, china) were used to detect the levels of pro-inflammatory cytokines and chemokines in RAW264.7 cell culture supernatant, including TNF-α, IL-6, IL-1β and MCP-1.
smiles,measurement,setting,value
CC[C@H](C)[C@@H]1NC(=O)[C@H](CO)NC(=O)[C@H](CCCCN)NC(=O)[C@H]([C@@H](C)O)NC(=O)[C@H](Cc2c[nH]c3ccccc23)NC(=O)[C@@H](N)CSSC[C@@H](C(=O)N[C@@H](CCCCN)C(=O)N[C@@H](Cc2ccccc2)C(=O)N[C@@H](Cc2ccccc2)C(=O)N[C@@H](CCCCN)C(=O)N[C@@H](CCCNC(=N)N)C(=O)N[C@@H](Cc2ccccc2)C(=O)N[C@@H](Cc2ccccc2)C(=O)N[C@@H](CCCCN)C(=O)N[C@@H](CO)C(=O)N[C@@H](Cc2ccccc2)C(=O)N[C@@H](CCCNC(=N)N)C(=O)N[C@@H](CCCNC(=N)N)C(=O)N[C@@H](C)C(=O)N[C@@H](Cc2ccccc2)C(=O)N[C@@H](CCCCN)C(=O)N[C@@H](CCCCN)C(=O)N[C@@H](Cc2ccccc2)C(N)=O)NC(=O)[C@@H]2CCCN2C(=O)[C@H](CCCCN)NC(=O)[C@@H]2CCCN2C(=O)[C@@H]2CCCN2C1=O [TIH3F] (H-CWTKSIPPKPCKFFKRFFKSFRRAFKKF-NH2; disulfide 1-11),MIC Vibrio Parahaemolyticus,Vibrio Parahaemolyticus,4.69 µg/mL
same,antimicrobial activity (kill %) in presence of salt,"E. coli ATCC25922; 50 mM NaCl, colony counting",not affected
same,kill (%) in presence of salt,E. coli ATCC25922; NaCl increased from 100 mM up to 200 mM,declined by half
same,killing effect in presence of salt,E. coli ATCC25922; NaCl raised from 100 mM to 400 mM,decreased by half
same,"LPS-induced production of NO, TNF-α, IL-6, IL-1β, MCP-1",Raw264.7 cells,strongest anti-inflammation effect
